Source: PubChem BioAssay AID1919005 (Molecular Pharmacology Branch, DTP, NCI, 2023)
Where “and” joins values, the source holds several entries; their conditions need not be identical. Identical values can stand only once.

Tested on: 855422-203-R-J1-PDC complex spheroid growth
Test: Anticancer human tumor 855422-203-R-J1-PDC patient-derived bladder carcinoma cell line growth inhibition [AhR]
Details: for viability, T/C: stronger effect = lower value
Summary of the method: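 Agents were dosed in half-log steps down from roughly clinical Cmax, or from 10 microM where Cmax was unknown, alone and with AhR antagonists. Read-out: percent test/control growth of tumor spheroids containing HUVEC and MSC stromal cells.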

[1] = curve of first compound, second compound 0.1 µM
[2] = curve of first compound, second compound 0.316 µM
[3] = curve of first compound, second compound 1 µM
[4] = curve of first compound, second compound 3.16 µM
[5] = curve of first compound, second compound 10 µM
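Also: spheroids exposed to agents for seven days before readout.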
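For viability, T/C in this document: percent of DMSO vehicle control luminescence viability.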

CC(C)CC(NC(=O)C(Cc1ccccc1)NC(=O)c1cnccn1)B(O)O (stereo not given) + CC(CO)NC(=O)c1cc(-c2ccc(Cl)cc2)nn(-c2cnn(C)c2)c1=O
IC50 [1]: 1.83 nM
IC50 [2]: 1.82 nM
IC50 [3]: 1.79 nM
IC50 [4]: 1.55 nM
IC50 [5]: 1.42 nM
viability, T/C (second compound 0.1 µM, first compound 0.000949 µM): 115%
viability, T/C (second compound 0.1 µM, first compound 0.003 µM): 0.93%
viability, T/C (second compound 0.1 µM, first compound 0.00949 µM): 0.37%
viability, T/C (second compound 0.1 µM, first compound 0.03 µM): 0.65%
viability, T/C (second compound 0.1 µM, first compound 0.0949 µM): 0.65%
viability, T/C (second compound 0.1 µM, first compound 0.3 µM): 0.89%
viability, T/C (second compound 0.316 µM, first compound 0.000949 µM): 113%
viability, T/C (second compound 0.316 µM, first compound 0.003 µM): 1.18%
viability, T/C (second compound 0.316 µM, first compound 0.00949 µM): 0.04%
viability, T/C (second compound 0.316 µM, first compound 0.03 µM): 0.01%
viability, T/C (second compound 0.316 µM, first compound 0.0949 µM): 0.02%
viability, T/C (second compound 0.316 µM, first compound 0.3 µM): 0.12%
viability, T/C (second compound 1 µM, first compound 0.000949 µM): 111%
viability, T/C (second compound 1 µM, first compound 0.003 µM): 0.73%
viability, T/C (second compound 1 µM, first compound 0.00949 µM): 0.02%
viability, T/C (second compound 1 µM, first compound 0.03 µM): 0.22%
viability, T/C (second compound 1 µM, first compound 0.0949 µM): 0.02%
viability, T/C (second compound 1 µM, first compound 0.3 µM): 0.11%
viability, T/C (second compound 3.16 µM, first compound 0.000949 µM): 86.3%
viability, T/C (second compound 3.16 µM, first compound 0.003 µM): 0.7%
viability, T/C (second compound 3.16 µM, first compound 0.00949 µM): 2.8%
viability, T/C (second compound 3.16 µM, first compound 0.03 µM): 0.03%
viability, T/C (second compound 3.16 µM, first compound 0.0949 µM): 0.14%
viability, T/C (second compound 3.16 µM, first compound 0.3 µM): 0.14%
viability, T/C (second compound 10 µM, first compound 0.000949 µM): 76.3%
viability, T/C (second compound 10 µM, first compound 0.003 µM): 1%
viability, T/C (second compound 10 µM, first compound 0.00949 µM): 0.16%
viability, T/C (second compound 10 µM, first compound 0.03 µM): 0.18%
viability, T/C (second compound 10 µM, first compound 0.0949 µM): 0.14%
viability, T/C (second compound 10 µM, first compound 0.3 µM): 0.2%

CC(CO)NC(=O)c1cc(-c2ccc(Cl)cc2)nn(-c2cnn(C)c2)c1=O (stereo not given)
viability, T/C (compound 0.1 µM): 92.2% [middle of 20 runs]
viability, T/C (compound 1 µM): 94.9% [middle of 21 runs]
viability, T/C (compound 3.16 µM): 96.8% [middle of 19 runs]
viability, T/C (compound 10 µM): 91.4% [middle of 19 runs]
IC50 (compound alone, run of 05/31/2022): > 10000 nM

CC(C)c1c(-c2ccccc2)nc2c(C#N)c[nH]n2c1=O
viability, T/C (compound 0.0316 µM): 105% and 98.6% and 111%
viability, T/C (compound 0.1 µM): 97.8% and 96% and 112%
viability, T/C (compound 0.316 µM): 111% and 97% and 96.5%
viability, T/C (compound 1 µM): 99.3% and 89.9% and 105%
viability, T/C (compound 3.16 µM): 105% and 98.1% and 98.8%
viability, T/C (compound 10 µM): 77.9% and 92% and 96.4%
IC50 (curve of compound): > 10000 nM

CC1(C)CCC(CN2CCN(c3ccc(C(=O)NS(=O)(=O)c4ccc(NCC5CCOCC5)c([N+](=O)[O-])c4)c(Oc4cnc5[nH]ccc5c4)c3)CC2)=C(c2ccc(Cl)cc2)C1 + Cc1cncc(-c2nc(NCCc3c[nH]c4ccccc34)c3ncn(C(C)C)c3n2)c1
IC50 [1]: 6140 nM
IC50 [2]: 5810 nM
IC50 [3]: 5450 nM
IC50 [4]: 4530 nM
IC50 [5]: < 31.6 nM
viability, T/C (second compound 0.1 µM, first compound 0.0316 µM): 93.9%
viability, T/C (second compound 0.1 µM, first compound 0.1 µM): 92.2%
viability, T/C (second compound 0.1 µM, first compound 0.316 µM): 98.1%
viability, T/C (second compound 0.1 µM, first compound 1 µM): 117%
viability, T/C (second compound 0.1 µM, first compound 3.16 µM): 108%
viability, T/C (second compound 0.1 µM, first compound 10 µM): 11.9%
viability, T/C (second compound 0.316 µM, first compound 0.0316 µM): 94.2%
viability, T/C (second compound 0.316 µM, first compound 0.1 µM): 91.1%
viability, T/C (second compound 0.316 µM, first compound 0.316 µM): 85.8%
viability, T/C (second compound 0.316 µM, first compound 1 µM): 90.3%
viability, T/C (second compound 0.316 µM, first compound 3.16 µM): 98.2%
viability, T/C (second compound 0.316 µM, first compound 10 µM): 12.6%
viability, T/C (second compound 1 µM, first compound 0.0316 µM): 83%
viability, T/C (second compound 1 µM, first compound 0.1 µM): 96.7%
viability, T/C (second compound 1 µM, first compound 0.316 µM): 83.7%
viability, T/C (second compound 1 µM, first compound 1 µM): 76.7%
viability, T/C (second compound 1 µM, first compound 3.16 µM): 84.8%
viability, T/C (second compound 1 µM, first compound 10 µM): 11.3%
viability, T/C (second compound 3.16 µM, first compound 0.0316 µM): 76.2%
viability, T/C (second compound 3.16 µM, first compound 0.1 µM): 80.7%
viability, T/C (second compound 3.16 µM, first compound 0.316 µM): 77.7%
viability, T/C (second compound 3.16 µM, first compound 1 µM): 60.8%
viability, T/C (second compound 3.16 µM, first compound 3.16 µM): 69.5%
viability, T/C (second compound 3.16 µM, first compound 10 µM): 13.8%
viability, T/C (second compound 10 µM, first compound 0.0316 µM): 38%
viability, T/C (second compound 10 µM, first compound 0.1 µM): 30.6%
viability, T/C (second compound 10 µM, first compound 0.316 µM): 22.1%
viability, T/C (second compound 10 µM, first compound 1 µM): 14.7%
viability, T/C (second compound 10 µM, first compound 3.16 µM): 24.5%
viability, T/C (second compound 10 µM, first compound 10 µM): 10.5%

COc1cc(Nc2ncc3c(n2)-c2ccc(Cl)cc2C(c2c(F)cccc2OC)=NC3)ccc1C(=O)O
viability, T/C (compound 0.0316 µM): 102% and 109% and 95.2%
viability, T/C (compound 0.1 µM): 105% and 114% (2×)
viability, T/C (compound 0.316 µM): 60.7% and 90.8% and 66.4%
viability, T/C (compound 1 µM): 55.4% and 89% and 51.6%
viability, T/C (compound 3.16 µM): 47.3% and 82.6% and 48.8%
viability, T/C (compound 10 µM): 45.4% and 68.6% and 47%

O=C(C=Cn1cnc(-c2cc(C(F)(F)F)cc(C(F)(F)F)c2)n1)NNc1cnccn1
viability, T/C (compound 0.00949 µM): 110% and 118% and 112%
viability, T/C (compound 0.03 µM): 105% and 125% and 130%
viability, T/C (compound 0.0949 µM): 164% and 169% and 162%
viability, T/C (compound 0.3 µM): 41.3% and 95.5% and 51.4%
viability, T/C (compound 0.949 µM): 29.9% and 55.1% and 35%
viability, T/C (compound 3 µM): 20.7% and 42.1% and 27.6%
IC50 (curve of compound): 267 nM and 917 nM and 327 nM
